# Data from patent US9137997B2 (priority 2011, dated 2015).
smiles,measurement,value
Cc1ccc2sc3c(=O)n(C)c(=O)c=3sc2c1,melting point,171 to 176 °C
